Assay [1] has as its target T1, c-Src kinase (human) (Homo sapiens, UniProt P12931).
T1 construct: purchased Upstate Biotechnology, Lake Placid, N.Y
As to the kind of experiment: c-Src Kinase Assay. The assay is classed as biochemical. To be noted: for IC50: read-out: c-Src IC50 (in parentheses); for inhibition at 2 µM / c-Src % Inhibition: test concentration of 2 μM, multiple values are separate assay results; for c-Src % Inhibition: 2 µM. A digest of the protocol: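 Inhibition was read as 33P incorporation, counted on P30 filtermats, after a 40 min, 30° C reaction. Human c-Src acted on 100 μM Cdc2 peptide with 5 μM ATP (final), pH 7.0 MOPS/MgCl2. Values are percent inhibition at 2 μM compound, or IC50 where determined.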

Assay [2] addresses T2, HER-4 (Homo sapiens, UniProt Q15303).
T2 construct: His6 with thrombin site (N); purchased Proqinase (Freiburg, Germany)
As to the kind of experiment: HER-4 Kinase Assay. It is filed as biochemical. The procedure:
The HER-4 kinase used was purified at Proqinase (Freiburg, Germany) from a construct that consisted of a fusion of GST (Glutathione-S-Transferase), HIS6-Thrombin and the nucleotides encoding amino acids 676 to 1307 of HER-4 (Accession NM 005235).
A mixture of a 10× kinase reaction buffer (600 mM Hepes at pH 7.5, 30 mM Magnesium Chloride, 0.03 mM Sodium Vanadate and 500 μg/mL PEG 20,000), DTT (1.2 mM final from a 10 mM) stock), ATP (1 μM from a 10 mM stock), biotinylated polyGluTyr (1.5 ng/μL final from stock of 1 μg/μL) prepared by Upstate Biotechnologies, Lake Placid, N.Y.), Manganese Chloride (3 mM final from a 1 M stock), γ-^33P-ATP (10 μCl/mL stock) and water (70 μL/well) was added to each well of a Streptavidin Flashplate (Cat. # SMP103, NEN, Boston, Mass.).
Test compound stock (1 μL) was added to the appropriate wells. Diluted GST HER-4 kinase (6.7 ng/μL diluted into 50 mM Tris-HCl at pH 8.0 and 0.1% bovine serum albumin) (30 μL) was added (total volume of 200 ng/well) to initiate the reactions.
The reaction plates were incubated at 30° C. for 1 hr. The reaction was terminated by aspirating the reaction mixture from the plate wells and washing the wells three times with a 1×PBS stop buffer (300 μL) and 100 mM EDTA. After the final wash, the same stop buffer (200 μL) was again added to the wells. The plates were then sealed and read on the TopCount scintillation counter.
For a series of test concentrations, the IC50 was derived by graphing percent inhibition against the log of the concentrations tested for a given compound.

Assay [3] relates to BT474 breast carcinoma. As to the kind of experiment: Cell Proliferation Inhibition Assay, BT474 (14C-thymidine). The assay is classed as cell-based. Particulars: Homo sapiens, BT-474, C14 method. An excerpt:
(§1) Cell Proliferation Inhibition Assay
(§2) The ability of a test compound to inhibit unregulated cell proliferation may be determined by measuring incorporation of ^14C-labelled thymidine into newly synthesized DNA within cell lines derived from carcinomas originating from several tissues. Accordingly, the effect of a test compound on proliferation of cells with a variety of phenotypes may be determined.
(§3) Carcinoma cell lines used include the HeLa cervical adenocarcinoma from the American Type Culture Collection (ATCC Cat. #CCL2), A375 malignant melanoma (ATCC Cat. #CRL-1619), HCT-116 colon carcinoma (ATCC Cat. #CCL-247), SKBR3 breast carcinoma (ATCC Cat. #HTB-30) and BT474 breast carcinoma (ATCC Cat. #HTB-20).
(§4) The carcinoma cells were trypsinized and counted. The cells (3000-8000 count) were added to each well of a 96-well CytoStar tissue culture treated scintillating microplate (Amersham #RPNQ0160) in complete medium (100 μL) and the plate was then incubated in complete medium for 24 hrs at 37° C. in an inert atmosphere containing 5% CO2.
(§5) Test compound (1 μL) in 100% DMSO was added to the plate test-wells with DMSO only added to control-wells. The plate was incubated in complete medium for a second 24 hr period at 37° C. in an atmosphere containing 5% CO2.
(§6) An aliquot of a solution of Methyl ^14C-thymidine (56 mC/mmol) (NEN #NEC568 or AMersham #CFA532) and complete medium (20 uL to provide 0.2 μCl/well) was then added to each well and the plate was incubated for a third 24 hr period at 37° C. in an atmosphere containing 5% CO2.
(§7) The plate contents were then discarded, the plate washed twice with PBS (200 μL) and then PBS (200 μL) was added to each well. The plate was sealed and the degree of methyl ^14C-thymidine incorporation was quantified on a Packard Top Count.
(§8) Cell proliferation of the Hela cell line was measured using the ATP-Lite method as described in the ATP Lite Kit (Perkin-Elmer Kit Number 6106941) or the C^14 method as described above. Cell proliferation of the other cell lines was measured using the C^14 method.

For assay [4], the system named is HeLa cervical adenocarcinoma. The assay can be described thus: Cell Proliferation Inhibition Assay, Hela (ATP Lite). Particulars: Homo sapiens, ATP-Lite method. It is filed as cell-based.
From the text: as §1, §2, §3, §4, §5, §8

In assay [5] the test system is SKBR3 breast carcinoma. The assay can be described thus: Cell Proliferation Inhibition Assay, SKBR3 (14C-thymidine). It is filed as cell-based. Particulars: Homo sapiens, SK-BR-3, C14 method.
From the text: as §1, §2, §3, §4, §5, §6, §7, §8

Each structure is given as a SMILES string. “And” between values parts separate entries of the source, which are not always exact repeats. Identical values can stand only once.

T2 sequence (Q15303 676-1307): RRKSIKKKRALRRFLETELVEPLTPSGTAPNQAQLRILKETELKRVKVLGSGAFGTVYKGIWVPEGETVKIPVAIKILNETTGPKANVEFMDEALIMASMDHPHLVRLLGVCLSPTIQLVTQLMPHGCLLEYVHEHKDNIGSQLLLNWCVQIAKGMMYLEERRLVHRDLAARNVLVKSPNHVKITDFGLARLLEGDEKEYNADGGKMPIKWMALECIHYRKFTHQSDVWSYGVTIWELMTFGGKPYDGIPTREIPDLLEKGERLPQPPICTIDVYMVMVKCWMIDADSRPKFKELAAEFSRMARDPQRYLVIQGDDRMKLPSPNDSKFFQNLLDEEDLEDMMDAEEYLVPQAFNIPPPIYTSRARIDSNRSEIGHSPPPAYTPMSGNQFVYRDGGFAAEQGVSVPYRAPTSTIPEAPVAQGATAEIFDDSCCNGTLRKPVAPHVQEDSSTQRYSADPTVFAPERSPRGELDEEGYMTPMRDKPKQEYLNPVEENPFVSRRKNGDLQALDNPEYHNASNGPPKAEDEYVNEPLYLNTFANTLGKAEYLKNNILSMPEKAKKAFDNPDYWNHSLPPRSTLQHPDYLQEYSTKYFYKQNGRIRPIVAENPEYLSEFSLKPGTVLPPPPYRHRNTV
T1 sequence (P12931 whole entry): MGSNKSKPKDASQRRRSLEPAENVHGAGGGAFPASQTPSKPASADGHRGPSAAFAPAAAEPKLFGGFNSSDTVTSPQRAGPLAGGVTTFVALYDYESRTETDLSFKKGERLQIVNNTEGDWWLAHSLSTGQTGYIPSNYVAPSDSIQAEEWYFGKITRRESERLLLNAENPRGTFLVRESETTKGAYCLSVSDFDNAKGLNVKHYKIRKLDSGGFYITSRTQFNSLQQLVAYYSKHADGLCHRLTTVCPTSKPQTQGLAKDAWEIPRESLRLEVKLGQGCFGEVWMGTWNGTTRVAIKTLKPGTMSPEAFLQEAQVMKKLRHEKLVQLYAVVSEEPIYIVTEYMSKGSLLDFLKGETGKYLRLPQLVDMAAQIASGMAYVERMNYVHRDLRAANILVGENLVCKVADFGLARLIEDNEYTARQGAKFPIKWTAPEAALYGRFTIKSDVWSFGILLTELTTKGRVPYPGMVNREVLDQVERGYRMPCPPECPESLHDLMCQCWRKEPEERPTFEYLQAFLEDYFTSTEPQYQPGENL

As for `O=C(Nc1ccc(CN2CCOCC2)cc1)c1sc2ncnc3c2c1NC(=O)N3c1ccc(Oc2ccccc2)cc1` [Cpd 97, 4-oxo-5-(4-phenoxy-phenyl)-4,5-dihydro-3H-1-thia-3,5,6,8-tetraaza-acenaphthylene-2-carboxylic acid (4-morpholin-4-ylmethyl-phenyl)-amide], the IC50 (in general, the midpoint of a concentration-inhibition curve) is around 2000 nM in assay [1] and 99 nM in assay [2].

`COc1ccc(NC(=O)c2sc3ncnc4c3c2NC(=O)N4c2ccc(OCc3ccccn3)c(Cl)c2)cc1OC` [Cpd 48, 5-[3-chloro-4-(pyridin-2-ylmethoxy)-phenyl]-4-oxo-4,5-dihydro-3H-1-thia-3,5,6,8-tetraaza-acenaphthylene-2-carboxylic acid (3,4-dimethoxy-phenyl)-amide]: in assay [1], the inhibition (in general, the relative decrease from the control value, in per cent) at 2 µM is 7%. Also, the IC50 was at least 10 µM in assay [3], 100 µM in assay [4] and 100 µM in assay [5].

In the case of `O=C(Nc1ccc(CN2CCOCC2)cc1)c1sc2ncnc3c2c1NC(=O)N3c1ccc(Sc2ccccc2)cc1` [Cpd 178, 4-oxo-5-(4-phenylsulfanyl-phenyl)-4,5-dihydro-3H-1-thia-3,5,6,8-tetraaza-acenaphthylene-2-carboxylic acid (4-morpholin-4-ylmethyl-phenyl)-amide], the IC50 stood at 126 nM in assay [2], 0.158 µM in assay [3], 53.4 µM in assay [4] and 0.292 µM in assay [5].

On to `O=C(Nc1ccc(CN2CCOCC2)cc1)c1sc2ncnc3c2c1NC(=O)N3c1ccc(OCc2ccccn2)c(Cl)c1` [Cpd 52, 5-[3-chloro-4-(pyridin-2-ylmethoxy)-phenyl]-4-oxo-4,5-dihydro-3H-1-thia-3,5,6,8-tetraaza-acenaphthylene-2-carboxylic acid (4-morpholin-4-ylmethyl-phenyl)-amide], for which the inhibition at 2 µM in assay [1] was 1%. In addition, the IC50 in assay [3] was found to be 5.98 µM; in assay [4] it was 27 µM; in assay [5], 2.61 µM.

As for `O=C(Nc1ccc(CN2CCOCC2)cc1)c1sc2ncnc3c2c1NC(=O)N3c1cccc(Br)c1` [Cpd 36, 5-(3-bromo-phenyl)-4-oxo-4,5-dihydro-3H-1-thia-3,5,6,8-tetraaza-acenaphthylene-2-carboxylic acid (4-morpholin-4-ylmethyl-phenyl)-amide], the IC50 in assay [1] is above 20000 nM; in assay [3], at least 100 µM; in assay [4] it was 100 µM; in assay [5] it was 100 µM.

Consider `O=C(O)c1sc2ncnc3c2c1NC(=O)N3c1ccc(OCc2ccccn2)c(Cl)c1` [Cpd 38, 5-[3-chloro-4-(pyridin-2-ylmethoxy)-phenyl]-4-oxo-4,5-dihydro-3H-1-thia-3,5,6,8-tetraaza-acenaphthylene-2-carboxylic acid], for which the inhibition at 2 µM in assay [1] was determined as 7%. Further, the IC50 in assay [3] was at least 100 µM; in assay [4] it was 100 µM; in assay [5], 100 µM.

For the compound `O=C(Nc1ccc(CN2CCOCC2)cc1)c1sc2ncnc3c2c1NC(=O)N3c1ccc(N2CCOCC2)cc1` [Cpd 123, 5-(4-morpholin-4-yl-phenyl)-4-oxo-4,5-dihydro-3H-1-thia-3,5,6,8-tetraaza-acenaphthylene-2-carboxylic acid (4-morpholin-4-ylmethyl-phenyl)-amide], in assay [1], the IC50 stood at 545 nM and the inhibition at 2 µM was 77%.

On to `O=C(Nc1ccc(NCCCN2CCOCC2)nc1)c1sc2ncnc3c2c1NC(=O)N3c1cccc(Br)c1` [Cpd 64, 5-(3-bromo-phenyl)-4-oxo-4,5-dihydro-3H-1-thia-3,5,6,8-tetraaza-acenaphthylene-2-carboxylic acid [6-(3-morpholin-4-yl-propylamino)-pyridin-3-yl]-amide], for which the inhibition at 2 µM in assay [1] is -14%. Also, the half-maximal inhibitory concentration (IC50) was at least 10 µM in assay [3], 10 µM in assay [4] and 100 µM in assay [5].

For `O=C(Nc1ccc(CN2CCCCC2)cc1)c1sc2ncnc3c2c1NC(=O)N3c1ccc(Oc2ccccc2)cc1` [Cpd 96, 4-oxo-5-(4-phenoxy-phenyl)-4,5-dihydro-3H-1-thia-3,5,6,8-tetraaza-acenaphthylene-2-carboxylic acid (4-piperidin-1-ylmethyl-phenyl)-amide], the IC50 in assay [1] is above 200000 nM; in assay [2], 18 nM.

Turning to `CC(C)(C)OC(=O)N1CCC(NC(=O)c2sc3ncnc4c3c2NC(=O)N4c2ccc3c(ccn3Cc3cccc(F)c3)c2)CC1` [Cpd 91, 4-({5-[1-(3-fluoro-benzyl)-1H-indol-5-yl]-4-oxo-4,5-dihydro-3H-1-thia-3,5,6,8-tetraaza-acenaphthylene-2-carbonyl}-amino)-piperidine-1-carboxylic acid tert-butyl ester], the inhibition at 2 µM in assay [1] was -37%.

For `CN1CCN(Cc2ccc(NC(=O)c3sc4ncnc5c4c3NC(=O)N5c3ccc(Oc4ccccc4)cc3)cc2)CC1` [Cpd 98, 4-oxo-5-(4-phenoxy-phenyl)-4,5-dihydro-3H-1-thia-3,5,6,8-tetraaza-acenaphthylene-2-carboxylic acid [4-(4-methyl-piperazin-1-ylmethyl)-phenyl]-amide], in assay [1], the IC50 was 592 nM; the “c-Src % Inhibition” value is 63% and 41%. Half-maximal inhibition in assay [2] (IC50) was put at 81 nM.

`CCOC(=O)c1sc2ncnc3c2c1NC(=O)N3c1ccc(C)c(Br)c1` [Cpd 102, 5-(3-bromo-4-methyl-phenyl)-4-oxo-4,5-dihydro-3H-1-thia-3,5,6,8-tetraaza-acenaphthylene-2-carboxylic acid ethyl ester]: the “c-Src % Inhibition” value in assay [1] was 3% and 12%.

Take `CN1CCC(NC(=O)c2sc3ncnc4c3c2NC(=O)N4c2ccc(Oc3ccc(F)cc3)cc2)CC1` [Cpd 118, 5-[4-(4-fluoro-phenoxy)-phenyl]-4-oxo-4,5-dihydro-3H-1-thia-3,5,6,8-tetraaza-acenaphthylene-2-carboxylic acid (1-methyl-piperidin-4-yl)-amide]: the inhibition at 2 µM in assay [1] stood at 15%.

Regarding `O=C(NCCCN1CCOCC1)c1sc2ncnc3c2c1NC(=O)N3c1ccc2c(ccn2Cc2cccc(F)c2)c1` [Cpd 95, 5-[1-(3-fluoro-benzyl)-1H-indol-5-yl]-4-oxo-4,5-dihydro-3H-1-thia-3,5,6,8-tetraaza-acenaphthylene-2-carboxylic acid (3-morpholin-4-yl-propyl)-amide], the inhibition at 2 µM in assay [1] is -15%.

Take `O=C(Nc1ccc(CN2CCCCC2)cc1)c1sc2ncnc3c2c1NC(=O)N3c1ccc(Sc2ccccc2)cc1` [Cpd 169, 4-oxo-5-(4-phenylsulfanyl-phenyl)-4,5-dihydro-3H-1-thia-3,5,6,8-tetraaza-acenaphthylene-2-carboxylic acid (4-piperidin-1-ylmethyl-phenyl)-amide]: the IC50 in assay [2] came out at 30 nM; in assay [3], 0.383 µM; in assay [4], 4.28 µM; in assay [5] it was 0.144 µM.

As to `Cc1ccc(Br)cc1N1C(=O)Nc2c(C(=O)NC3CCN(C)CC3)sc3ncnc1c23` [Cpd 117, 5-(5-bromo-2-methyl-phenyl)-4-oxo-4,5-dihydro-3H-1-thia-3,5,6,8-tetraaza-acenaphthylene-2-carboxylic acid (1-methyl-piperidin-4-yl)-amide], the inhibition at 2 µM in assay [1] was found to be 25%.

(Values after US7579356B2, “Thia-tetraazaacenaphthylene kinase inhibitors” (Janssen Pharmaceutica NV, priority 2005, dated 2009).)
